Measured values reported in patent publication US4179467A, “Dopamine hydroxylase inhibiting 2-amino-cyclopent-1-ene-1-thiocarboxylic acid-disulfides” (Richter Gedeon Vegyeszeti Gyar Rt., priority 1976, dated 1979).

What was measured:
[1] = tested on: dopamine-β-hydroxylase; test: Noradrenaline and dopamine levels of the cerebrum (brain) in rats, % of controls; type: in vivo, male Wistar rats; conditions: rat, i.p., 4 hours
Description: (§1) The dopamine-β-hydroxylase inhibiting effects of the new compounds according to the invention were examined by the following tests:
(§2) The tests were performed on male Wistar rats weighing 150 to 200 g. The dopamine-β-hydroxylase inhibiting effects of the compounds were evaluated by determining the change of noradrenaline, dopamine and adrenaline levels of the cerebrum, heart, spleen and adrenal gland. The serotonine and 5-hydroxy-indolylacetic acid levels of the cerebrum were also determined. The measurements were performed as follows:
(§3) The animals were decapitated, the cerebrum, heart, spleen and adrenal gland were removed quickly, and the organs were frozen by placing them on a metal sheet cooled with dry ice. The frozen organs were stored for a maximum of one night at -20° C.
(§4) The organs were weighed in the frozen state and then homogenized in 5.0 ml of 0.4 N perchloric acid containing 0.05% of EDTA-Naa and 0.1% of Na2 S2 O5. The homogenized mixtures were centrifuged as described above for the treatment of adrenal gland, the supernatants were decanted, and the pH was adjusted to 8.0±0.1 with a 0.1 molar tris buffer containing 20 g/l of NaOH and 25 g/l of EDTA-Na2. 100 mg of prepared Al2 O3 (Anton et al.: J. Pharm. Ther. 138, 360 (1962)) were added to the samples, and the mixtures were shaken mechanically for 20 minutes. Thereafter the Al2 O3 was washed with 2×10 ml of distilled water, and noradrenaline was eluted with 1.0 ml of 0.05 N perchloric acid. 0.5 ml samples of the eluate were used for the determination of noradrenaline. Noradrenaline was determined according to the method of Shellenberger et al. (Anal. Biochem. 39, 356 (1971)), with the following modifications of the basic procedure: 0.5 ml of 0.1 molar Na-K-phosphate buffer, containing 9 g/l of EDTA-Na2, were added to 0.5 ml of the eluate, and the catecholamines (noradrenaline in the examination of heart and spleen and noradrenaline and dopamine in the examination of the cerebrum) were oxidized with 0.1 ml of a 0.1 N iodine solution in 5% potassium iodide. After exactly 2 minutes, oxidation was stopped by adding 0.25 ml of a 2.5% sodium sulfite solution in 4.4 N aqueous sodium hydroxide to the mixture. 2 minutes after the introduction of the alkaline sulfite solution, 0.2 ml of concentrated acetic acid was added to the samples, whereupon the pH decreased to 4.4 to 4.5. Thereafter the samples were placed for 5 minutes in a drying oven heated to 100° C., and then the samples were cooled with ice water. The fluorescency of noradrenaline was measured with an OPTON spectrophotometer at wavelengths of 380 nm (excitation) and 490 nm (emission).
The brains were homogenized in 10 parts by volume of 0.4 N perchloric acid. The homogenized mixture was stored at -20° C. overnight; thereafter it was thawed and centrifuged as described above. A sample of the homogenized mixture corresponding to 0.5 g of brain was removed, the pH of the sample was adjusted to 8.0±0.1 with 0.1 molar tris-buffer of the above composition, and the sample was processed as described above for the determination of the noradrenaline content of heart and spleen, with the difference that 1.5 ml of 0.05 N perchloric acid was used as the eluting agent. 0.5 ml of the eluate was used to determine the noradrenaline and dopamine contents. The measurement was performed as described above, with the difference that samples of 0.5 ml were applied for the recording of the flourescence of noradrenaline. The residue was placed for 50 minutes into a drying oven heated to 100° C., thereafter the sample was cooled with ice water, and the fluorescence of dopamine was recorded at wavelengths of 325 nm (excitation) and 380 nm (emission).
In a further test series the serotonine and 5-hydroxy-indolylacetic acid contents were also determined, in addition to the determination of the noradrenaline and dopamine content, from the same sample. […]

[2] = tested on: serotonine and 5-hydroxy-indolylacetic acid levels of the cerebrum; test: Serotonine and 5-hydroxy-indolylacetic acid levels of the cerebrum (brain) in rats, % of controls; type: in vivo, male Wistar rats; conditions: rat, i.p., 4 hours
Description: as §2, §3
In a further test series the serotonine and 5-hydroxy-indolylacetic acid contents were also determined, in addition to the determination of the noradrenaline and dopamine content, from the same sample. In this instance the brains were homogenized in 10 ml of 75% ethanol, 0.2 ml of EDTA-Na2 and 5% of ascorbic acid were added to the homogenized mixtures, and the homogenized mixtures were maintained at -20° C. overnight. The mixtures were centrifuged as described above, and 5.0 ml samples of the supernatant were removed. The samples were diluted with equal volumes of distilled water, and poured onto ion exchange columns of 0.5×1.5 cm dimensions, filled with buffered Amberlite CG-30 (200 to 400 mesh). The columns were washed with 5 ml of distilled water followed by 1.0 ml of 0.2 N hydrochloric acid, and the first effluent and the aqueous wash were collected for the determination of 5-hydroxy-indolylacetic acid. Elution was continued with a further 1.2 ml quantity of 0.2 N hydrochloric acid in order to remove noradrenaline, dopamine and serotonine. Samples of 0.3 ml were used for the determinations.
Noradrenaline and dopamine were determined by the method of Shellenberger, modified as described above, whereas serotonine was determined by the method of Curzon et al. (Brit. J. Pharmacol. 39, 653 (1970)). The basic method was modified as follows: A 0.5% solution of ortho-phthal(di)aldehyde in absolute ethanol was diluted with […] hydrochloric acid to 50-fold of its original volume, and 0.6 ml of the resulting 0.01% ortho-phthal(di)aldehyde solution were added immediately to 0.5 ml of the serotonine-containing sample. The sample was placed in a hot water bath for 10 minutes, thereafter cooled with tap water, and the flourescence was recorded at wavelengths of 360 nm (excitation) and 490 nm (emission).
5-Hydroxy-indolylacetic acid was determined from the mixture of the first effluent and the aqueous wash. 10 ml of distilled water and 0.2 ml of concentrated hydrochloric acid were added to the mixture, and the sample was poured onto a 0.8×4.0 cm column filled with Sephadex G-10. The column was washed with 15 ml of 0.1 N hydrochloric acid followed by 1.8 to 2.0 ml of 0.02 N aqueous ammonia, and then 5-hydroxy-indolylacetic acid was eluted with further 2.0 ml of the aqueous ammonia. 0.5 ml samples were used in the measurements, and the determination was performed according to the method of Korf et al. (Biochem. Pharmacol. 20, 659 (1971)).
(§5) In the tests disulfiram, 2,2-dipyridyl, bis(1-methyl-4-homopiperazinyl-thiocarbonyl)-disulfide, sodium diethyldithiocarbamate and N-phenyl-N'-(2-thiazolyl)-thiourea were used as reference substances. The values indicated in Table 1 are the percentages in relation to the amine levels of the controls measured in the same tests (±standard error). The statistical calculations were performed on a TPA/i type computer, using Student's t test.

[3] = tested on: dopamine-β-hydroxylase; test: Noradrenaline level of heart in rats, % of controls; type: in vivo, male Wistar rats; conditions: rat, i.p., 4 hours
Description: as §1, §2, §3, §4, §5

[4] = tested on: dopamine-β-hydroxylase; test: Adrenaline level of adrenal gland in rats, % of controls; type: in vivo, male Wistar rats; conditions: rat, i.p., 4 hours
Description: as §1, §2, §3
The adrenal glands were freed from fat and homogenized in 3.0 ml of ice-cold 0.4 N perchloric acid. The homogenized mixtures were centrifuged for 10 minutes at 0° C. with a speed of 3200 r.p.m. using a Janetzky K-70 type centrifuge. 0.05 ml samples were taken from the supernatant, and the adrenaline level was determined directly by the method of Laverty et al. (Anal. Biochem. 22, 269 (1968)).
as §5

[5] = Toxicity, LD50, rats; conditions: rat, in vivo, po
[6] = Toxicity, LD50, rabbits; conditions: rabbit, in vivo, po
[7] = tested on: dopamine-β-hydroxylase; conditions: known compounds, literature; cited from earlier work

## CCN(CC)C(=S)SSC(=S)N(CC)CC [DS, bis(diethylthiocarbamoyl)-disulfide]
[1]; 200 mg/kg
  Brain DA level (percentages in relation to the controls): 111%
  Brain NA level (percentages in relation to the controls): 22.5%
[1]; 400 mg/kg
  Brain DA level (percentages in relation to the controls): 112%
  Brain NA level (percentages in relation to the controls): 24.1%
[2]; 200 mg/kg
  Brain SE level (percentages in relation to the controls): 122%
[2]; 400 mg/kg
  Brain SE level (percentages in relation to the controls): 117%
[3]; 200 mg/kg
  Heart NA level (percentages in relation to the controls): 98%
[3]; 400 mg/kg
  Heart NA level (percentages in relation to the controls): 102%
[4]; 200 mg/kg
  Adrenal gland adrenaline level (% of controls): 52%
[4]; 400 mg/kg
  Adrenal gland adrenaline level (% of controls): 66%
[5]
  LD50: 8600 ± 370 mg/kg
[6]
  LD50: 1800 ± 130 mg/kg
[7]
  dopamine-β-hydroxylase inhibiting effects, in words: strong dopamine-β-hydroxylase inhibiting effects
